Data from patent publication US6610677B2, “Pyrazole compounds useful as protein kinase inhibitors” (Vertex Pharmaceuticals Incorporated, priority 2000, dated 2003).

Legend:
[1] = target: T1, GSK-3β (AA 1-420) (Homo sapiens, UniProt P49841); assay: Ki determination for the inhibition of GSK-3 (coupled enzyme system); assay type: biochemical; conditions: 20 μM ATP, 300 μM peptide, 20 nM GSK-3β, 30° C
T1 construct: GSK-3β (AA 1-420)
Procedure, shortened: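 Ki values come from reaction rates over 10 min at 30 °C as a function of inhibitor concentration (12-point titration, 0.002–30 μM, 10 min preincubation). GSK-3β (AA 1-420, 20 nM) phosphorylated 300 μM primed peptide with 20 μM ATP; ADP formation followed by coupled NADH oxidation, pH 7.5.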

[2] = target: T2, Aurora-2 (Homo sapiens, UniProt O14965); assay: Ki determination for the inhibition of Aurora-2 (coupled enzyme assay); assay type: biochemical; conditions: 70 nM Aurora-2, peptide LRRASLG, 30° C
T2 sequence (O14965 1-403): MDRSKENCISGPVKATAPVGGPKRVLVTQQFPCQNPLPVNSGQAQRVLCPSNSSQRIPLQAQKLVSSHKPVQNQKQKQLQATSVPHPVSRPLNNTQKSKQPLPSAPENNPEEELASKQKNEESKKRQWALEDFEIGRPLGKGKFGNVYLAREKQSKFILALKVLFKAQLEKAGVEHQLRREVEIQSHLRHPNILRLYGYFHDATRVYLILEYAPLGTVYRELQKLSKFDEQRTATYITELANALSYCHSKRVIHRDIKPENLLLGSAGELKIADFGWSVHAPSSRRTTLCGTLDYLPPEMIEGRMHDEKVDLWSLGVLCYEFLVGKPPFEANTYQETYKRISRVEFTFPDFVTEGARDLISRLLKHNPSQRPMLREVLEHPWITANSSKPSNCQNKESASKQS
Protocol: Compounds were screened in the following manner for their ability to inhibit Aurora-2 using a standard coupled enzyme assay (Fox et al (1998) Protein Sci 7, 2249).
To an assay stock buffer solution containing 0.1M HEPES 7.5, 10 mM MgCl2, 1 mM DTT, 25 mM NaCl, 2.5 mM phosphoenolpyruvate, […], 30 mg/ml pyruvate kinase, 10 mg/ml lactate dehydrogenase, […], and 800 μM peptide (LRRASLG, American Peptide, Sunnyvale, Calif.) was added a DMSO solution of a compound of the present invention to a final concentration of 30 μM. The resulting mixture was incubated at 30° C. for 10 min. The reaction was initiated by the addition of 10 μL of Aurora-2 stock solution to give a final concentration of 70 nM in the assay. The rates of reaction were obtained by monitoring absorbance at 340 nm over a 5 minute read time at 30° C. using a BioRad Ultramark plate reader (Hercules, Calif.). The Ki values were determined from the rate data as a function of inhibitor concentration.

T1 sequence (P49841 whole entry, the tested form may be a part): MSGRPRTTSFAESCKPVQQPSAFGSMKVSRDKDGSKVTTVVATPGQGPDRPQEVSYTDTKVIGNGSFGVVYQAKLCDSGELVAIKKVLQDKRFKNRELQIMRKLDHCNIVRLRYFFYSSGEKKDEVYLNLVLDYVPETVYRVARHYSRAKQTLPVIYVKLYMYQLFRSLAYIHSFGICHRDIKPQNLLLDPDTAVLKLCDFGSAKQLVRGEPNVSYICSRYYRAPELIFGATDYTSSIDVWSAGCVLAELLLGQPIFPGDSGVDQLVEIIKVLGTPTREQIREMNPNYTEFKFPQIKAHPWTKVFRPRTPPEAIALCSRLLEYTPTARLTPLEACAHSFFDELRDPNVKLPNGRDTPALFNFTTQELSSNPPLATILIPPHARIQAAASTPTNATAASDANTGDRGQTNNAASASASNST

SMILES	melting point	Ki [1]	Ki [2]
Cc1cc(Nc2nc(N3CCOCC3)nc3ccccc23)[nH]n1 [III-104, (5-Methyl-2H-pyrazol-3-yl)-(2-morpholin-4-yl-quinazolin-4-yl)-amine]	223 to 224 °C	–	–
Cc1cc(Nc2nc(-c3ccccc3)nc3cnccc23)n[nH]1 [IV-30, (5-Methyl-2H-pyrazol-3-yl)-(2-phenyl-pyrido[3,4-d]pyrimidin-4-yl)-amine]	225 °C	–	–
O=C(O)c1cc(Nc2nc(-c3ccccc3)nc3ccccc23)[nH]n1 [III-72, (5-Carboxy-2H-pyrazol-3-yl)-(2-phenyl-quinazolin-4-yl)-amine]	289 to 291 °C (dec.)	–	–
CC(C)(C)c1cc(Nc2nc(-c3ccncc3)nc3ccccc23)[nH]n1 [III-69, (5-tert-Butyl-2H-pyrazol-3-yl)-(2-pyridin-4-yl-quinazolin-4-yl)-amine]	> 300 °C	–	–
Cc1cc(Nc2ccnc(N3CCC(C)CC3)n2)n[nH]1 [IV-4, [2-(4-Methylpiperidin-1-yl)-pyrimidin-4-yl]-(5-methyl-2H-pyrazol-3-yl)-amine]	215 to 216 °C	–	–
CC(=O)Nc1ccc(Sc2cc(Nc3cc(C)[nH]n3)nc(-c3ccccc3)n2)cc1 [IV-3, [6-(4-Acetamidophenylsulfanyl)-2-phenyl-pyrimidin-4-yl]-(5-methyl-2H-pyrazol-3-yl)-amine]	235 to 236 °C	–	–
Cc1cc(Nc2nc(-c3ccccc3)nc3ncccc23)n[nH]1 [IV-31, (5-Methyl-2H-pyrazol-3-yl)-(2-phenyl-pyrido[2,3-d]pyrimidin-4-yl)-amine]	234 °C	–	–
Cc1cc(Nc2ccnc(-c3ccccc3)n2)n[nH]1 [IV-1, (5-Methyl-2H-pyrazol-3-yl)-(2-phenyl-pyrimidin-4-yl)-amine]	245 to 246 °C	–	–
Cc1cc(Nc2nc(N3CCC(C)CC3)ncc2[N+](=O)[O-])[nH]n1 [IV-5, [2-(4-Methylpiperidin-1-yl)-5-nitropyrimidin-4-yl]-(5-methyl-2H-pyrazol-3-yl)-amine]	185 to 187 °C	–	–
Cc1cc(Nc2nc(N3CCC(C)CC3)nc(C)c2N)n[nH]1 [IV-7, [5-Amino-6-methyl-2-(4-methylpiperidin-1-yl)-pyrimidin-4-yl]-(5-methyl-2H-pyrazol-3-yl)-amine]	172 to 175 °C	–	–
Oc1cc(Nc2nc(-c3ccccc3C(F)(F)F)nc3ccccc23)n[nH]1 [II-54, (5-Hydroxy-2H-pyrazol-3-yl)-[2-(2-trifluoromethylphenyl)-quinazolin-4-yl]-amine]	–	< 100 nM	1000 to 20000 nM
CCc1cc(Nc2cc(C)n[nH]2)nc(-c2ccccc2OC(F)(F)F)n1 [II-105, [6-Ethyl-2-(2-trifluoromethoxy-phenyl)-pyrimidin-4-yl]-(5-methyl-2H-pyrazol-3-yl)-amine]	–	< 100 nM	100 to 1000 nM
C=CCNC(=O)c1cc(Nc2nc(-c3ccccc3)nc3ccccc23)[nH]n1 [III-82, (5-Allylcarbamoyl-2H-pyrazol-3-yl)-(2-phenyl-quinazolin-4-yl)-amine]	–	100 to 1000 nM	1000 to 20000 nM
Cc1cc(Nc2nc(-c3ccccc3Cl)nc3ccccc23)n[nH]1 [II-36, [2-(2-Chlorophenyl)-quinazolin-4-yl]-(5-methyl-2H-pyrazol-3-yl)-amine]	–	< 100 nM	< 100 nM
Clc1ccc(-c2nc(Nc3cc(C4CC4)n[nH]3)c3ccccc3n2)cc1Cl [III-46, (5-Cyclopropyl-2H-pyrazol-3-yl)-[2-(3,4-dichlorophenyl)-quinazolin-4-yl]-amine]	–	< 100 nM	< 100 nM
Cc1cc(Nc2nc(-c3c(C)cccc3C)nc3ccccc23)n[nH]1 [II-38, [2-(2,6-Dimethylphenyl)-quinazolin-4-yl]-(5-methyl-2H-pyrazol-3-yl)-amine]	–	< 100 nM	100 to 1000 nM
FC(F)(F)c1ccccc1-c1nc(Nc2n[nH]c3cc(Br)ccc23)c2ccccc2n1 [II-82, (6-Bromo-1H-indazol-3-yl)-[2-(2-trifluoromethyl-phenyl)-quinazolin-4-yl]-amine]	–	< 100 nM	1000 to 20000 nM
